According to patent US5292733A, “Cephalosporin compounds” (Lucky Limited, priority 1991, dated 1994):
Converted amounts (≈) assume the structure as drawn.

Tests used:
Test in all cases: Antibacterial activity MIC, two-fold agar dilution
Type in all cases: cell-based
[1] = test system: Acinetobacter calcoaceticus ATCC 15473; conditions: ATCC15473; Acinetobacter calcoaceticus ATCC 15473; Muller-Hinton agar, 37° C., 20 hours; read-out: Antibacterial Activity MIC
Method in brief: (§1)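 Read-out is the MIC on agar plates after 20 hours at 37° C. Test compounds were dispersed as two-fold serial dilutions in Muller-Hinton medium, then inoculated with 2 μl of standard strain containing 10^7 CFU per ml.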

[2] = test system: Bacillus cereus ATCC 11778; conditions: ATCC11778; Bacillus cereus ATCC 11778; Muller-Hinton agar, 37° C., 20 hours; read-out: Antibacterial Activity MIC
Method in brief: as §1

[3] = test system: Bacillus megaterium ATCC 9885; conditions: Priestia megaterium, ATCC9885; Bacillus megaterium ATCC 9885; Muller-Hinton agar, 37° C., 20 hours; read-out: Antibacterial Activity MIC
Method in brief: as §1

[4] = test system: Citrobacter freundii ATCC 8090; conditions: ATCC8090; Citrobacter freundii ATCC 8090; Muller-Hinton agar, 37° C., 20 hours; read-out: Antibacterial Activity MIC
Method in brief: as §1

[5] = test system: Enterobacter aerogenes ATCC 29751; conditions: Klebsiella aerogenes, ATCC29751; Enterobacter aerogenes ATCC 29751; Muller-Hinton agar, 37° C., 20 hours; read-out: Antibacterial Activity MIC
Method in brief: as §1

[6] = test system: Enterobacter cloacae ATCC 27508; conditions: ATCC27508; Enterobacter cloacae ATCC 27508; Muller-Hinton agar, 37° C., 20 hours; read-out: Antibacterial Activity MIC
Method in brief: as §1

[7] = test system: Escherichia coli ATCC 10536; conditions: ATCC10536, Muller-Hinton agar, 37° C., 20 hours
Method in brief: as §1

[8] = test system: Escherichia coli ATCC 25922; conditions: ATCC25922, Muller-Hinton agar, 37° C., 20 hours
Method in brief: as §1

[9] = test system: Klebsiella pneumoniae ATCC 10031; conditions: ATCC10031; Klebsiella pneumoniae ATCC 10031; Muller-Hinton agar, 37° C., 20 hours; read-out: Antibacterial Activity MIC
Method in brief: as §1

[10] = test system: Micrococcus luteus ATCC 9341; conditions: ATCC9341; Micrococcus luteus ATCC 9341; Muller-Hinton agar, 37° C., 20 hours; read-out: Antibacterial Activity MIC
Method in brief: as §1

[11] = test system: Morganella morganii ATCC 8076h; conditions: ATCC8076H, Muller-Hinton agar, 37° C., 20 hours
Method in brief: as §1

[12] = test system: Proteus mirabilis ATCC 25933; conditions: ATCC25933; Proteus mirabilis ATCC 25933; Muller-Hinton agar, 37° C., 20 hours; read-out: Antibacterial Activity MIC
Method in brief: as §1

[13] = test system: Proteus vulgaris ATCC 6059; conditions: ATCC6059; Proteus vulgaris ATCC 6059; Muller-Hinton agar, 37° C., 20 hours; read-out: Antibacterial Activity MIC
Method in brief: as §1

[14] = test system: Providencia rettgeri ATCC 9250; conditions: ATCC9250, Muller-Hinton agar, 37° C., 20 hours
Method in brief: as §1

[15] = test system: Pseudomonas aeruginosa ATCC 10145; conditions: ATCC10145; Pseudomonas aeruginosa ATCC 10145; Muller-Hinton agar, 37° C., 20 hours; read-out: Antibacterial Activity MIC
Method in brief: as §1

[16] = test system: Pseudomonas aeruginosa ATCC 25619; conditions: ATCC25619; Pseudomonas aeruginosa ATCC 25619; Muller-Hinton agar, 37° C., 20 hours; read-out: Antibacterial Activity MIC
Method in brief: as §1

[17] = test system: Pseudomonas aeruginosa ATCC 27853; conditions: ATCC27853; Pseudomonas aeruginosa ATCC 27853; Muller-Hinton agar, 37° C., 20 hours; read-out: Antibacterial Activity MIC
Method in brief: as §1

[18] = test system: Salmonella typhimurium ATCC 14028; conditions: Salmonella enterica; Salmonella typhimurium ATCC 14028; Muller-Hinton agar, 37° C., 20 hours; read-out: Antibacterial Activity MIC
Method in brief: as §1

[19] = test system: Serratia marcescens ATCC 27117; conditions: ATCC27117; Serratia marcescens ATCC 27117; Muller-Hinton agar, 37° C., 20 hours; read-out: Antibacterial Activity MIC
Method in brief: as §1

[20] = test system: Shigella flexneri ATCC 11836; conditions: ATCC11836, Muller-Hinton agar, 37° C., 20 hours
Method in brief: as §1

[21] = test system: Shigella sonnei ATCC 11060; conditions: ATCC11060, Muller-Hinton agar, 37° C., 20 hours
Method in brief: as §1

[22] = test system: Staphylococcus aureus ATCC 10537; conditions: ATCC10537; Staphylococcus aureus ATCC 10537; Muller-Hinton agar, 37° C., 20 hours; read-out: Antibacterial Activity MIC
Method in brief: as §1

[23] = test system: Staphylococcus aureus ATCC 6538p; conditions: ATCC6538P; Staphylococcus aureus ATCC 6538p; Muller-Hinton agar, 37° C., 20 hours; read-out: Antibacterial Activity MIC
Method in brief: as §1

[24] = test system: Staphylococcus epidermidis ATCC 12228; conditions: ATCC12228; Staphylococcus epidermidis ATCC 12228; Muller-Hinton agar, 37° C., 20 hours; read-out: Antibacterial Activity MIC
Method in brief: as §1

[25] = test system: Streptococcus faecalis ATCC 29212; conditions: Enterococcus faecalis, ATCC29212; Streptococcus faecalis ATCC 29212; Muller-Hinton agar, 37° C., 20 hours; read-out: Antibacterial Activity MIC
Method in brief: as §1

Structure (SMILES)	MIC [1] [µg/mL]	MIC [2] [µg/mL]	MIC [3] [µg/mL]	MIC [4] [µg/mL]	MIC [5] [µg/mL]	MIC [6] [µg/mL]	MIC [7] [µg/mL]	MIC [8] [µg/mL]	MIC [9] [µg/mL]	MIC [10] [µg/mL]	MIC [11] [µg/mL]	MIC [12] [µg/mL]	MIC [13] [µg/mL]	MIC [14] [µg/mL]	MIC [15] [µg/mL]	MIC [16] [µg/mL]	MIC [17] [µg/mL]	MIC [18] [µg/mL]	MIC [19] [µg/mL]	MIC [20] [µg/mL]	also measured
CO/N=C(\C(=O)N[C@@H]1C(=O)N2C(C(=O)[O-])=C(CSc3cc(N)[n+](C)c(N)n3)CS[C@H]12)c1csc(N)n1 [Compound I-21, (6R,7R)-7-[(Z)-2-(2-aminothiazol-4-yl)-2-(methoxyimino)acetamido]-3-(2,6-diamino-1-methylpyrimidinium-4-yl)thiomethyl-3-cephem-4-carboxylate]	8 (≈ 14.5 µM)	128 (≈ 232 µM)	0.13 (≈ 0.236 µM)	0.031 (≈ 0.0562 µM)	0.25 (≈ 0.453 µM)	≤ 0.008	0.063 (≈ 0.114 µM)	0.063 (≈ 0.114 µM)	≤ 0.008	0.063 (≈ 0.114 µM)	≤ 0.008	0.5 (≈ 0.906 µM)	0.5 (≈ 0.906 µM)	≤ 0.008	16 (≈ 29 µM)	1 (≈ 1.81 µM)	2 (≈ 3.63 µM)	0.13 (≈ 0.236 µM)	0.25 (≈ 0.453 µM)	0.016 (≈ 0.029 µM)	MIC [21]: 0.13 µg/mL (≈ 0.236 µM); MIC [22]: 0.5 µg/mL (≈ 0.906 µM); MIC [23]: 0.5 µg/mL (≈ 0.906 µM); MIC [24]: 0.25 µg/mL (≈ 0.453 µM); MIC [25]: 32 µg/mL (≈ 58 µM)
CC[n+]1c(N)cc(SCC2=C(C(=O)[O-])N3C(=O)[C@@H](NC(=O)/C(=N\OC)c4csc(N)n4)[C@H]3SC2)nc1N [Compound I-22, (6R,7)-7-[(Z)-2-(2-aminothiazol-4-yl)-2-(methoxyimino)acetamido]-3-(2,6-diamino-1-ethylpyrimidinium-4-yl)thiomethyl-3-cephem-4-carboxylate]	8 (≈ 14.1 µM)	64 (≈ 113 µM)	0.25 (≈ 0.442 µM)	0.25 (≈ 0.442 µM)	0.25 (≈ 0.442 µM)	≤ 0.008	0.063 (≈ 0.111 µM)	0.063 (≈ 0.111 µM)	≤ 0.008	0.031 (≈ 0.0548 µM)	≤ 0.008	0.25 (≈ 0.442 µM)	0.25 (≈ 0.442 µM)	≤ 0.008	8 (≈ 14.1 µM)	1 (≈ 1.77 µM)	2 (≈ 3.54 µM)	0.13 (≈ 0.23 µM)	0.25 (≈ 0.442 µM)	0.063 (≈ 0.111 µM)	MIC [21]: 0.031 µg/mL (≈ 0.0548 µM); MIC [22]: 0.5 µg/mL (≈ 0.884 µM); MIC [23]: 0.25 µg/mL (≈ 0.442 µM); MIC [24]: 0.25 µg/mL (≈ 0.442 µM); MIC [25]: 8 µg/mL (≈ 14.1 µM)
C[n+]1c(N)nc(N)nc1SCC1=C(C(=O)[O-])N2C(=O)C(NC(=O)/C(=N\OC(C)(C)C(=O)O)c3csc(N)n3)[C@H]2SC1 (stereo partly drawn) [Compound I-23, 7-[(Z)-2-(2-aminothiazol-4-yl)-2-(2-carboxyprop-2-oxyimino)acetamido]-3-(4,6-diamino-1-methyl-1,3,5-triazinium-2-yl)thiomethyl-3-cephem-4-carboxylate]	4 (≈ 6.4 µM)	128 (≈ 205 µM)	0.5 (≈ 0.8 µM)	0.13 (≈ 0.208 µM)	2 (≈ 3.2 µM)	0.031 (≈ 0.0496 µM)	0.063 (≈ 0.101 µM)	0.063 (≈ 0.101 µM)	0.063 (≈ 0.101 µM)	1 (≈ 1.6 µM)	≤ 0.008	0.063 (≈ 0.101 µM)	0.063 (≈ 0.101 µM)	≤ 0.008	2 (≈ 3.2 µM)	1 (≈ 1.6 µM)	1 (≈ 1.6 µM)	0.13 (≈ 0.208 µM)	0.13 (≈ 0.208 µM)	0.063 (≈ 0.101 µM)	MIC [21]: 0.063 µg/mL (≈ 0.101 µM); MIC [22]: 2 µg/mL (≈ 3.2 µM); MIC [23]: 8 µg/mL (≈ 12.8 µM); MIC [24]: 2 µg/mL (≈ 3.2 µM); MIC [25]: > 128 µg/mL
